The values that follow come from patent US20210282378A1, “Mutant Mouse-Derived Pancreatic Organoid and Method for Evaluating Standardized Drug for Efficacy” (Seoul National University R&DB Foundation, priority 2018, published 2021).

Experiment [1] relates to pancreatic organoids derived from BRCA2 gene-deleted mice (Brca2^F11/F11; CreER™). In words: Drug responsiveness of pancreatic organoids with normal or exon 11-deleted BRCA2, observed with an inverted microscope. It counts as cell-based, mouse. Particulars: alone or in combination with 200 nM TSA, with vs without BRCA2 exon 11 deletion, FIG. 6. How it is done:
With reference to the method of Example 2 above, pancreatic organoids derived from BRCA2 gene-deleted mice (Brca2^F11/F11; CreER™) were prepared. To induce a partial deletion of BRCA2 gene (deletion of exon 11 of BRCA2 gene), 4-hydroxytamoxifen (4-OHT) was added to the organoids in an amount of 400 nM, and the resulting organoids were cultured for 3 weeks or more (see Example 2). For comparison, organoids not treated with 4-OHT (in which BRCA2 gene is normal) were also prepared.
Organoids having normal BRCA2 gene (not treated with 4-OHT) and organoids with a partial deletion of BRCA2 (exon 11 deletion) were seeded in equal amounts into 24-well plates. On the day after seeding, the organoids were treated with a mixture of the anticancer agent histone deacetylase inhibitor (HDACi) and a culture medium (see Example 2).
3 days after treatment (first treatment) with HDACi, the culture medium was replaced with a fresh medium, and treatment (second treatment) with each HDACi was performed again at the concentration shown in Table 3. Here, the primary treatment with HDACi was performed about 24 to 48 hours after seeding of the organoids, and 3 days after that, the second treatment was performed.

Experiment [2] relates to mutant organoids (cancer-like). The experiment is described as follows: p53 expression level by Western blot, mutant organoids. The class given is cell-based, mouse. Particulars: two treatments 72 hours apart, day 5 after primary treatment; FIG. 15. How it is done:
(§1) The mouse-derived organoids described in Examples 1 to 7 or patient-derived organoids were primarily treated with a drug, and after 72 hours, secondarily treated with the drug. As the drug, Resveratrone used in Examples 9 and 10 was used. On day 2 after the secondary drug treatment (day 5 after the primary drug treatment), the cell culture medium was removed, and then the cells were washed with 1 ml of PBS. After removal of PBS, the cells were mechanically dissociated with 500 μl of a recovery solution. The cell solution was agitated at 50 to 70 rpm at 4° C. for 1 hour, transferred into a microtube, and then centrifuged at 1200 rpm for 5 minutes, followed by removal of the supernatant. The remaining pellet was lysed with NETN buffer, and then sonicated using a sonicator for 1 minute with an output of 2 to 3 and centrifuged at 12,000 rpm for 20 to 30 minutes, and the supernatant was collected. The supernatant was quantified to 100 to 120 μg using Bradford assay, and then loaded onto a 10% polyacrylamide gel, followed by SD S-PAGE (Sodium Dodecyl Sulfate-Polyacrylamide gel electrophoresis) gel running. Then, the gel was transferred to a nitrocellulose membrane, and the transferred membrane was blocked with 5% skim milk while stirring at 50 rpm for 1 hour at RT. […]

Experiment [3] relates to patient-derived organoids. In words: p53 expression level by Western blot, patient-derived organoids. The class given is cell-based, human. Particulars: two treatments 72 hours apart, day 5 after primary treatment; FIG. 15. How it is done: as §1
Experiment [4] relates to normal pancreatic organoids. In words: Effect of Resveratrone on normal organoids. The class given is cell-based, mouse. Particulars: 0, 200 or 500 μM. How it is done:
Pancreatic tissue isolated from the genetically mutated mice described in Examples 1 to 7 above was dissociated. Cell pellets containing ductal cells were collected from the dissociated pancreatic tissue. The collected cell pellets were grown with a biomatrix in a cell incubator at 37° C. under 5% CO2. Thereafter, the produced organoids were grown in an organoid culture medium until 75% or more thereof grew to a diameter of 200 to 500 μm. […] The organoids were treated with a drug diluted in an organoid culture medium. […] As a result of the measurement, it could be confirmed that, when the above-described drug treatment method was used, it was possible to track the drug responsiveness of each organoid, which was a limitation of a conventional drug screening method using organoids, and drug treatment in a uniform size state was possible. […] As the maximum value of the average diameter of the collected organoids increases, the difference in size (average diameter) between the organoids included increases, so that the difference in responsiveness to the same drug between the organoids increases. Thus, in order to obtain a uniform drug responsiveness result, it is important to determine the upper limit of the size (average diameter) of the organoids. […]

For experiment [5], the system named is mouse-derived normal organoids. The experiment is described as follows: p53 expression level by Western blot, normal organoids. It counts as cell-based. Particulars: two treatments 72 hours apart, day 5 after primary treatment; FIG. 15. The protocol: as §1
The subject of experiment [6] is pancreatic organoids from Kras^G12D mutant mice. The class given is cell-based, mouse. Particulars: FIG. 14A.
Procedure: The organoids were treated with 0 μM, 200 μM or 500 μM of the drug, followed by analysis of GFP (see FIG. 14A).

Molecules are shown by their SMILES.

Turning to `CC[C@@H]1C(=O)N(C)c2cnc(Nc3ccc(C(=O)NC4CCN(C)CC4)cc3OC)nc2N1C1CCCC1` [BI2536], in experiment [1] (10 nM), the “responsiveness to the tested drugs (state of the organoids)” value is “did differ depending on the presence or absence of the BRCA2 gene”.
Consider `O=C(c1cc(Cc2n[nH]c(=O)c3ccccc23)ccc1F)N1CCN(C(=O)C2CC2)CC1` [Olaparib], for which, in experiment [1] (10 μM), the “responsiveness to the tested drugs (state of the organoids)” value is “did differ depending on the presence or absence of the BRCA2 gene”.
In the case of `CC(=O)/C=C/c1ccc2cc(O)cc(O)c2c1` [Resveratrone], the figures for the “expression level of p53” value in experiment [2] and in experiment [5] were “did not increase” and “increased”, respectively. Besides, the “expression level of p53, normal vs cancer tendency” value in experiment [3] is “this tendency was also found in the patient-derived organoids”. Further, the “effect of the drug on normal pancreatic organoids” value in experiment [4] is recorded as “no effect”. For the same compound, the “GFP / green fluorescence of dying cells” value in experiment [6] (200 μM) is reported as “exhibited fluorescence”. In experiment [6] (500 μM), the “GFP / cell death” value is “cell death occurred and GFP decreased”.
